According to article PMC6409085, “Three odorant-binding proteins are involved in the behavioral response of Sogatella furcifera to rice plant volatiles” (PeerJ, 2019):
Where “and” joins values, the source holds several entries; their conditions need not be identical. Equal values may be shown once.

Columns and labels:
Assay in all cases: biochemical
Assay type in all cases: binding
SfurOBP2 = SfurOBP2 (Sogatella furcifera, UniProt V5T759)
Experimental: (§1) Thirty-six rice odorants ([He et al., 2014]; [Wang et al., 2017]) and 1-N-phenyl-naphthylamine (1-NPN) were purchased from Sigma-Aldrich (St Louis, MO, USA). These odorants and 1-NPN were dissolved in high-performance liquid chromatography (HPLC) purify grade methanol for 1.0 mM as work solution.
(§2) Fluorescence competitive binding assays were performed on Tecan Spark 10M (Tecan Group Ltd., Männedorf, Switzerland) with the F96 Black ELIAS Plate (Sangon) ([Khuhro et al., 2017]; [Liu et al., 2017]). The solutions were excited at 337 nm and emission spectra were recorded between 390 and 490 nm. First, to test the binding constants of 1-NPN to the SfurOBPs, a 2.0 µM solution of protein in 50 mM Tris-HCl (pH = 7.4) was titrated with 1 mM 1-NPN to achieve virous concentrations. Next, the competitive binding of each odorant was measured using the 1-NPN as fluorescent reporter and odorant as competitor. The concentrations of protein and 1-NPN were both 2.0 µM, the odorant added after protein and 1-NPN added into the well of ELIAS Plate for 2 min. The final concentrations of each competitor were 2, 4, 6, 8, 10, 12, 14, 16, 18 and 20 µM. After 2 min of odorant added, the fluorescence intensity was measured and recorded. The volume of mixed solution in each well was maintained at 250 µL. Each interaction was performed in triplicates.
(§3) GraphPad Prism 7.0 software (GraphPad Software, Inc., La Jolla, CA, USA) was used to calculated and generated the binding constants (K1−NPN) of 1-NPN to SfurOBPs and relative Scatchard plots ([Ban et al., 2003]; [Li et al., 2016]). Dissociation constant (Ki) of each odorant to SfurOBP was computed from the corresponding IC50 value (the half maximal inhibitory concentration), using the following equation: Ki=[IC50]/(1 + [1-NPN]/K1−NPN), where [1-NPN] is the free concentration of 1-NPN and K1−NPN is the dissociation constant of the complex protein/1-NPN.

SfurOBP1 = SfurOBP1 (Sogatella furcifera, UniProt V5T8N5); details: for Fluorescence competitive binding assay, fluorescence intensity: OBP1, three replicate columns
Chain of SfurOBP1 (V5T8N5 entry or part of it): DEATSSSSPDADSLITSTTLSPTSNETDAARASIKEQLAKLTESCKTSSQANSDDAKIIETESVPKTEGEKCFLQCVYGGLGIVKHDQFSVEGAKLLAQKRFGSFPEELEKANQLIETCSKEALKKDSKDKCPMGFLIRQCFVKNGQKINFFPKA
Experimental: as §1, §2, §3

SfurOBP3 = SfurOBP3 (Sogatella furcifera, UniProt V5T818); details: for Fluorescence competitive binding assay, fluorescence intensity: OBP3, three replicate columns
Chain of SfurOBP3 (V5T818 entry or part of it): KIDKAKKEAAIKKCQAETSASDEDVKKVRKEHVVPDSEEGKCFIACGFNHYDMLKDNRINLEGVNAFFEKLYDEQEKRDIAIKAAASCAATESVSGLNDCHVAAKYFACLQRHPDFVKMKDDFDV
Experimental: as §1, §2, §3

SfurOBP11 = SfurOBP11 (Sogatella furcifera, UniProt V5T6E3)
Chain of SfurOBP11 (V5T6E3 entry or part of it): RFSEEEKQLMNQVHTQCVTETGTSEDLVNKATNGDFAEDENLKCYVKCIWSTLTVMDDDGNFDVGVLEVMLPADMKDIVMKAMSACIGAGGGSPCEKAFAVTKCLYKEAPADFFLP
Experimental: as §1, §2, §3

Chain of SfurOBP2 (V5T759 entry or part of it): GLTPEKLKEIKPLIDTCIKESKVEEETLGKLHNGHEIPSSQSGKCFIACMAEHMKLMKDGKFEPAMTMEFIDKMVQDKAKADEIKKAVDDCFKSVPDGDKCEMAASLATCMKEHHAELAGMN

In the case of `O=C(c1ccccc1)c1ccccc1` [benzophenone], the IC50 (SfurOBP2) is reported as > 20 µM, the “Fluorescence competitive binding assay, OBP2 (raw fluorescence reading)” value (SfurOBP2; ligand concentration 2 (unit not given), replicate column 1 of 3) is reported as 16222 and the “Fluorescence competitive binding assay, OBP2 (raw fluorescence reading)” value (SfurOBP2; ligand concentration 2 (unit not given), replicate column 2 of 3) is reported as 16950. For the same molecule, the “Fluorescence competitive binding assay, OBP2 (raw fluorescence reading)” value (SfurOBP2; ligand concentration 2 (unit not given), replicate column 3 of 3) was 16565, the “Fluorescence competitive binding assay, OBP2 (raw fluorescence reading)” value (SfurOBP2; ligand concentration 4 (unit not given), replicate column 1 of 3) was 15645 and the “Fluorescence competitive binding assay, OBP2 (raw fluorescence reading)” value (SfurOBP2; ligand concentration 4 (unit not given), replicate column 2 of 3) was 17125. The “Fluorescence competitive binding assay, OBP2 (raw fluorescence reading)” value (SfurOBP2; ligand concentration 4 (unit not given), replicate column 3 of 3) was 16794, the “Fluorescence competitive binding assay, OBP2 (raw fluorescence reading)” value (SfurOBP2; ligand concentration 6 (unit not given), replicate column 1 of 3) was 16160 and the “Fluorescence competitive binding assay, OBP2 (raw fluorescence reading)” value (SfurOBP2; ligand concentration 6 (unit not given), replicate column 2 of 3) was 16241. The “Fluorescence competitive binding assay, OBP2 (raw fluorescence reading)” value (SfurOBP2; ligand concentration 6 (unit not given), replicate column 3 of 3) was 16073, the “Fluorescence competitive binding assay, OBP2 (raw fluorescence reading)” value (SfurOBP2; ligand concentration 8 (unit not given), replicate column 1 of 3) was 14263 and the “Fluorescence competitive binding assay, OBP2 (raw fluorescence reading)” value (SfurOBP2; ligand concentration 8 (unit not given), replicate column 2 of 3) was 14653. The “Fluorescence competitive binding assay, OBP2 (raw fluorescence reading)” value (SfurOBP2; ligand concentration 8 (unit not given), replicate column 3 of 3) was 15131, the “Fluorescence competitive binding assay, OBP2 (raw fluorescence reading)” value (SfurOBP2; ligand concentration 10 (unit not given), replicate column 1 of 3) was 13747 and the “Fluorescence competitive binding assay, OBP2 (raw fluorescence reading)” value (SfurOBP2; ligand concentration 10 (unit not given), replicate column 2 of 3) was 14449. For the same molecule, the “Fluorescence competitive binding assay, OBP2 (raw fluorescence reading)” value (SfurOBP2; ligand concentration 10 (unit not given), replicate column 3 of 3) was 15134, the “Fluorescence competitive binding assay, OBP2 (raw fluorescence reading)” value (SfurOBP2; ligand concentration 12 (unit not given), replicate column 1 of 3) was 12905 and the “Fluorescence competitive binding assay, OBP2 (raw fluorescence reading)” value (SfurOBP2; ligand concentration 12 (unit not given), replicate column 2 of 3) was 13209. For the same molecule, the “Fluorescence competitive binding assay, OBP2 (raw fluorescence reading)” value (SfurOBP2; ligand concentration 12 (unit not given), replicate column 3 of 3) was 14417, the “Fluorescence competitive binding assay, OBP2 (raw fluorescence reading)” value (SfurOBP2; ligand concentration 14 (unit not given), replicate column 1 of 3) was 11252 and the “Fluorescence competitive binding assay, OBP2 (raw fluorescence reading)” value (SfurOBP2; ligand concentration 14 (unit not given), replicate column 2 of 3) was 12436. For the same molecule, the “Fluorescence competitive binding assay, OBP2 (raw fluorescence reading)” value (SfurOBP2; ligand concentration 14 (unit not given), replicate column 3 of 3) was 12979, the “Fluorescence competitive binding assay, OBP2 (raw fluorescence reading)” value (SfurOBP2; ligand concentration 16 (unit not given), replicate column 1 of 3) was 11787 and the “Fluorescence competitive binding assay, OBP2 (raw fluorescence reading)” value (SfurOBP2; ligand concentration 16 (unit not given), replicate column 2 of 3) was 11767. For the same molecule, the “Fluorescence competitive binding assay, OBP2 (raw fluorescence reading)” value (SfurOBP2; ligand concentration 16 (unit not given), replicate column 3 of 3) was 11673, the “Fluorescence competitive binding assay, OBP2 (raw fluorescence reading)” value (SfurOBP2; ligand concentration 18 (unit not given), replicate column 1 of 3) was 12436 and the “Fluorescence competitive binding assay, OBP2 (raw fluorescence reading)” value (SfurOBP2; ligand concentration 18 (unit not given), replicate column 2 of 3) was 11331. The “Fluorescence competitive binding assay, OBP2 (raw fluorescence reading)” value (SfurOBP2; ligand concentration 18 (unit not given), replicate column 3 of 3) was 11969, the “Fluorescence competitive binding assay, OBP2 (raw fluorescence reading)” value (SfurOBP2; ligand concentration 20 (unit not given), replicate column 1 of 3) was 11423 and the “Fluorescence competitive binding assay, OBP2 (raw fluorescence reading)” value (SfurOBP2; ligand concentration 20 (unit not given), replicate column 2 of 3) was 12242. For the same molecule, the “Fluorescence competitive binding assay, OBP2 (raw fluorescence reading)” value (SfurOBP2; ligand concentration 20 (unit not given), replicate column 3 of 3) was 11724, the IC50 (SfurOBP1) was > 20 µM and the “Fluorescence competitive binding assay, fluorescence intensity” value (SfurOBP1; ligand concentration 2 (μM)) was 4924 and 4810 and 4695. The “Fluorescence competitive binding assay, fluorescence intensity” value (SfurOBP1; ligand concentration 4 (μM)) was 5262 and 5281 and 5299, the “Fluorescence competitive binding assay, fluorescence intensity” value (SfurOBP1; ligand concentration 6 (μM)) was 5268 and 5717 and 5292 and the “Fluorescence competitive binding assay, fluorescence intensity” value (SfurOBP1; ligand concentration 8 (μM)) was 5360 and 5130 and 5580. The “Fluorescence competitive binding assay, fluorescence intensity” value (SfurOBP1; ligand concentration 10 (μM)) was 5344 and 5432 and 5519, the “Fluorescence competitive binding assay, fluorescence intensity” value (SfurOBP1; ligand concentration 12 (μM)) was 5178 and 5515 and 5347 and the “Fluorescence competitive binding assay, fluorescence intensity” value (SfurOBP1; ligand concentration 14 (μM)) was 5173 and 5557 and 5365. For the same molecule, the “Fluorescence competitive binding assay, fluorescence intensity” value (SfurOBP1; ligand concentration 16 (μM)) was 5828 and 4931 and 5380, the “Fluorescence competitive binding assay, fluorescence intensity” value (SfurOBP1; ligand concentration 18 (μM)) was 5476 and 5297 and 5257 and the “Fluorescence competitive binding assay, fluorescence intensity” value (SfurOBP1; ligand concentration 20 (μM)) was 5039 and 5512 and 5595. For the same molecule, the IC50 (SfurOBP3) was > 20 µM, the “Fluorescence competitive binding assay, fluorescence intensity” value (SfurOBP3; ligand concentration 2) was 66323 and 67865 and 69406 and the “Fluorescence competitive binding assay, fluorescence intensity” value (SfurOBP3; ligand concentration 4) was 72270 and 71733 and 72815. For the same molecule, the “Fluorescence competitive binding assay, fluorescence intensity” value (SfurOBP3; ligand concentration 6) was 57537 and 56825 and 55208, the “Fluorescence competitive binding assay, fluorescence intensity” value (SfurOBP3; ligand concentration 8) was 58199 and 53071 and 55635 and the “Fluorescence competitive binding assay, fluorescence intensity” value (SfurOBP3; ligand concentration 10) was 54477 and 51518 and 50551. For the same molecule, the “Fluorescence competitive binding assay, fluorescence intensity” value (SfurOBP3; ligand concentration 12) was 55084 and 52185 and 53632, the “Fluorescence competitive binding assay, fluorescence intensity” value (SfurOBP3; ligand concentration 14) was 52805 and 53281 and 53058 and the “Fluorescence competitive binding assay, fluorescence intensity” value (SfurOBP3; ligand concentration 16) was 41260 and 41464 and 41332. For the same molecule, the “Fluorescence competitive binding assay, fluorescence intensity” value (SfurOBP3; ligand concentration 18) was 39853 and 41331 and 40577, the “Fluorescence competitive binding assay, fluorescence intensity” value (SfurOBP3; ligand concentration 20) was 39610 and 40773 and 38426 and the IC50 (SfurOBP11) was 16.3 µM. For the same molecule, the “Fluorescence intensity, fluorescence competitive binding assay, OBP11” value (“Fluorescence intensity … OBP11” for short) (SfurOBP11; ligand concentration 2, replicate 1) was 21450, the “Fluorescence intensity … OBP11” value (SfurOBP11; ligand concentration 2, replicate 2) was 21005 and the “Fluorescence intensity … OBP11” value (SfurOBP11; ligand concentration 2, replicate 3) was 21027. For the same molecule, the “Fluorescence intensity … OBP11” value (SfurOBP11; ligand concentration 4, replicate 1) was 20588, the “Fluorescence intensity … OBP11” value (SfurOBP11; ligand concentration 4, replicate 2) was 20654 and the “Fluorescence intensity … OBP11” value (SfurOBP11; ligand concentration 4, replicate 3) was 20719. The “Fluorescence intensity … OBP11” value (SfurOBP11; ligand concentration 6, replicate 1) was 19889, the “Fluorescence intensity … OBP11” value (SfurOBP11; ligand concentration 6, replicate 2) was 20401 and the “Fluorescence intensity … OBP11” value (SfurOBP11; ligand concentration 6, replicate 3) was 19317. The “Fluorescence intensity … OBP11” value (SfurOBP11; ligand concentration 8, replicate 1) was 19997, the “Fluorescence intensity … OBP11” value (SfurOBP11; ligand concentration 8, replicate 2) was 20308 and the “Fluorescence intensity … OBP11” value (SfurOBP11; ligand concentration 8, replicate 3) was 18308. For the same molecule, the “Fluorescence intensity … OBP11” value (SfurOBP11; ligand concentration 10, replicate 1) was 18532, the “Fluorescence intensity … OBP11” value (SfurOBP11; ligand concentration 10, replicate 2) was 18946 and the “Fluorescence intensity … OBP11” value (SfurOBP11; ligand concentration 10, replicate 3) was 17435. For the same molecule, the “Fluorescence intensity … OBP11” value (SfurOBP11; ligand concentration 12, replicate 1) was 17719, the “Fluorescence intensity … OBP11” value (SfurOBP11; ligand concentration 12, replicate 2) was 18881 and the “Fluorescence intensity … OBP11” value (SfurOBP11; ligand concentration 12, replicate 3) was 17057. For the same molecule, the “Fluorescence intensity … OBP11” value (SfurOBP11; ligand concentration 14, replicate 1) was 16744, the “Fluorescence intensity … OBP11” value (SfurOBP11; ligand concentration 14, replicate 2) was 17392 and the “Fluorescence intensity … OBP11” value (SfurOBP11; ligand concentration 14, replicate 3) was 16199. For the same molecule, the “Fluorescence intensity … OBP11” value (SfurOBP11; ligand concentration 16, replicate 1) was 16069, the “Fluorescence intensity … OBP11” value (SfurOBP11; ligand concentration 16, replicate 2) was 15955 and the “Fluorescence intensity … OBP11” value (SfurOBP11; ligand concentration 16, replicate 3) was 16012. For the same molecule, the “Fluorescence intensity … OBP11” value (SfurOBP11; ligand concentration 18, replicate 1) was 16341, the “Fluorescence intensity … OBP11” value (SfurOBP11; ligand concentration 18, replicate 2) was 15453 and the “Fluorescence intensity … OBP11” value (SfurOBP11; ligand concentration 18, replicate 3) was 16084. For the same molecule, the “Fluorescence intensity … OBP11” value (SfurOBP11; ligand concentration 20, replicate 1) was 15275, the “Fluorescence intensity … OBP11” value (SfurOBP11; ligand concentration 20, replicate 2) was 14432 and the “Fluorescence intensity … OBP11” value (SfurOBP11; ligand concentration 20, replicate 3) was 14489.
